Values of other authors as cited in patent publication EP0280593B1, “Composition on the basis of an amino-acid and vitamins for use in cancer therapy” (Rougereau, André, priority 1987, dated 1988).

Legend:
[1] = test system: rat; conditions: par voie orale chez le rat
[2] = test system: souris; conditions: par voie orale chez la souris

## NCCC(=O)O [β-alanine]
[1]
  dose léthale DL₅₀: > 10000 mg/kg
[2]
  dose léthale DL₅₀: > 10000 mg/kg
